The text below walks through data of article PMC11424460, “Inhibitory effects of calcium channel blockers nisoldipine and nimodipine on ivacaftor metabolism and their underlying mechanism” (Frontiers in Pharmacology, 2024).

Molecules are shown by their SMILES.

In the experiment the test system is ivacaftor metabolism in rat liver microsomes (RLM). The experiment in a line: Screening of 79 drugs (100 μM) for inhibition of ivacaftor metabolism in RLM incubation. The conditions noted are these: each drug 100 μM, 0.3 mg/mL RLM. It is filed as in vitro ADME. The protocol:
The supernatants were centrifuged at 100,000 × g for 1 h, and the pellets were resuspended with cold […] PBS. Protein concentrations were determined by Bradford Protein Assay Kit (Thermo Scientific, Waltham, MA, United States).
This system was made up of 200 μL of incubation solution consisting of 0.3 mg/mL RLM or 0.4 mg/mL HLM, 1.0 mM NADPH, pH 7.4 PBS and ivacaftor. […] The solution should be pre-incubated at 37°C for 5 min before adding NADPH. Following the addition of NADPH, the mixture should be incubated for 40 min. The reaction should then be stopped at −80°C. After the enzyme reaction was completed, 20 μL of 500 ng/mL IS solution and 400 μL acetonitrile (protein precipitating agent) were added to the mixture. The mixture was vortexed for 2 min and then centrifuged at 13,000 rpm for 10 min. After centrifugation, 100 μL of the supernatant was quantified using UPLC-MS/MS.
Each drug was used at a concentration of 100 μM as the inhibitor. The culture system was 200 μL and included 0.3 mg/mL RLM, 1.0 mM NADPH, PBS, ivacaftor, and inhibitor. The reaction procedure was the same as the enzyme reaction mentioned above Section 2.2.
On to `O=C(O)Cc1ccc(O)cc1` [2-(4-Hydroxyphenyl) acetic acid], for which the “Metabolic rate (Mean ± SD, % of control)” value is 101.32 ± 0.94 % of control.
As to `O=C(O[C@@H]1Cc2c(O)cc(O)cc2O[C@@H]1c1cc(O)c(O)c(O)c1)c1cc(O)c(O)c(O)c1` [(-)-Epigallocatechin gallate], the “Metabolic rate (Mean ± SD, % of control)” value is listed as 72.21 ± 13.75 % of control.
As to `CCCCc1oc2ccccc2c1C(=O)c1cc(I)c(OCCN(CC)CC)c(I)c1` [Amiodarone], the “Metabolic rate (Mean ± SD, % of control)” value was 5.73 ± 0.85 % of control.
Regarding `C=C1CC[C@@H]2[C@](C)(CO)[C@H](O)CC[C@@]2(C)[C@@H]1C/C=C1/C(=O)OC[C@H]1O` [Andrographolide], the “Metabolic rate (Mean ± SD, % of control)” value is listed as 81.58 ± 1.22 % of control.
For `O=c1cc(-c2ccc(O)cc2)oc2cc(O)cc(O)c12` [Apigenin] the value was 58.35 ± 2.14 % of control.
Regarding `COc1ccc(-n2nc(C(N)=O)c3c2C(=O)N(c2ccc(N4CCCCC4=O)cc2)CC3)cc1` [Apixaban], the “Metabolic rate (Mean ± SD, % of control)” value is 83.91 ± 3.91 % of control.
Take `CO[C@H]1O[C@@H]2O[C@@]3(C)CC[C@H]4[C@H](C)CC[C@@H]([C@H]1C)[C@@]24OO3` [Artemether]: the “Metabolic rate (Mean ± SD, % of control)” value is 41.88 ± 3.81 % of control.
For `O=c1cc(-c2ccccc2)oc2cc(O)c(O)c(O)c12` [Baicalein], the “Metabolic rate (Mean ± SD, % of control)” value is recorded as 15.24 ± 0.00 % of control.
Take `O=C(O)[C@H]1O[C@@H](Oc2cc3oc(-c4ccccc4)cc(=O)c3c(O)c2O)[C@H](O)[C@@H](O)[C@@H]1O` [Baicalin]: the “Metabolic rate (Mean ± SD, % of control)” value is reported as 50.95 ± 0.08 % of control.
As to `COc1ccc2cc3[n+](cc2c1OC)CCc1cc2c(cc1-3)OCO2` [Berberine], the “Metabolic rate (Mean ± SD, % of control)” value is listed as 109.72 ± 0.72 % of control.
In the case of `COc1c(O)cc2c(c1O)[C@@H]1O[C@H](CO)[C@@H](O)[C@H](O)[C@H]1OC2=O` [Bergenin] it was 142.63 ± 33.46 % of control.
Regarding `C[N+](C)(C)CC(=O)O` [Betaine], the “Metabolic rate (Mean ± SD, % of control)” value is 100.10 ± 4.97 % of control.
Take `COc1ccccc1Oc1c(NS(=O)(=O)c2ccc(C(C)(C)C)cc2)nc(-c2ncccn2)nc1OCCO` [Bosentan]: the “Metabolic rate (Mean ± SD, % of control)” value is on record as 131.49 ± 2.21 % of control.
`O=C(O)/C=C/c1ccc(O)c(O)c1` [Caffeic acid]: the “Metabolic rate (Mean ± SD, % of control)” value is recorded as 106.41 ± 1.94 % of control.
In the case of `COc1ccccc1OCCNCC(O)COc1cccc2[nH]c3ccccc3c12` (stereo not drawn) [Carvedilol], the “Metabolic rate (Mean ± SD, % of control)” value was 12.87 ± 0.57 % of control.
For the molecule `O=c1cc(-c2ccccc2)oc2cc(O)cc(O)c12` [Chrysin], the “Metabolic rate (Mean ± SD, % of control)” value is on record as 74.50 ± 20.73 % of control.
In the case of `O=C1CCc2cc(OCCCCc3nnnn3C3CCCCC3)ccc2N1` [Cilostazol], the “Metabolic rate (Mean ± SD, % of control)” value is 13.12 ± 0.36 % of control.
Regarding `CN/C(=N/CCSCc1nc[nH]c1C)NC#N` [Cimetidine], the “Metabolic rate (Mean ± SD, % of control)” value was 62.59 ± 8.46 % of control.
`COc1cc(/C=C/C(=O)CC(=O)/C=C/c2ccc(O)c(OC)c2)ccc1O` [Curcumin]: the “Metabolic rate (Mean ± SD, % of control)” value is given as 8.19 ± 0.34 % of control.
For the molecule `[H]/N=C(/N)c1ccc(NCc2nc3cc(C(=O)N(CCC(=O)O)c4ccccn4)ccc3n2C)cc1` [Dabigatran], the “Metabolic rate (Mean ± SD, % of control)” value is on record as 104.42 ± 27.66 % of control.
In the case of `O=c1c(-c2ccc(O)cc2)coc2cc(O)ccc12` [Daidzein], the “Metabolic rate (Mean ± SD, % of control)” value is 105.78 ± 2.90 % of control.
`COc1cc2cc(Oc3ccc4ccc(=O)oc4c3)c(=O)oc2cc1O` [Daphnoretin]: the “Metabolic rate (Mean ± SD, % of control)” value was 69.60 ± 0.85 % of control.
Regarding `CN(C)[C@@H](CCOc1cccc2ccccc12)c1ccccc1` [Dapoxetine], the “Metabolic rate (Mean ± SD, % of control)” value is recorded as 19.76 ± 0.64 % of control.
In the case of `COc1ccc([C@@H]2Sc3ccccc3N(CCN(C)C)C(=O)[C@@H]2OC(C)=O)cc1` [Dilthiazem] it was 26.04 ± 1.00 % of control.
Regarding `CCCCc1oc2ccc(NS(C)(=O)=O)cc2c1C(=O)c1ccc(OCCCN(CCCC)CCCC)cc1` [Dronedarone], the “Metabolic rate (Mean ± SD, % of control)” value was 4.76 ± 0.94 % of control.
On to `Oc1cc(O)c2c(c1)O[C@H](c1ccc(O)c(O)c1)[C@H](O)C2` [Epicatechin], for which the “Metabolic rate (Mean ± SD, % of control)” value was 100.31 ± 2.66 % of control.
For `CCc1cccc2c3c([nH]c12)C(CC)(CC(=O)O)OCC3` (stereo not drawn) [Etodolac] the value was 98.19 ± 1.07 % of control.
For `COc1ccc2cc1Oc1ccc(cc1)C[C@H]1c3cc(c(OC)cc3CCN1C)Oc1c(O)c(OC)cc3c1[C@H](C2)N(C)CC3` [Fangchinoline] the value was 29.41 ± 4.61 % of control; for `O=c1c(O)c(-c2ccc(O)c(O)c2)oc2cc(O)ccc12` [Fisetin], 44.37 ± 1.28 % of control.
In the case of `O=C(O)c1cc(O)c(O)c(O)c1` [Gallic acid] it was 95.98 ± 6.77 % of control; in that of `O=c1c(-c2ccc(O)cc2)coc2cc(O)cc(O)c12` [Genistein], 50.39 ± 12.01 % of control; in that of `CCC1=C(C)CN(C(=O)NCCc2ccc(S(=O)(=O)NC(=O)N[C@H]3CC[C@H](C)CC3)cc2)C1=O` [Glimepiride], 36.97 ± 1.02 % of control.
For `COc1ccc([C@@H]2CC(=O)c3c(O)cc(O)cc3O2)cc1O` [Hesperetin], the “Metabolic rate (Mean ± SD, % of control)” value is 31.12 ± 2.75 % of control.
`COc1ccc([C@@H]2CC(=O)c3c(O)cc(O[C@@H]4O[C@H](CO[C@@H]5O[C@@H](C)[C@H](O)[C@@H](O)[C@H]5O)[C@@H](O)[C@H](O)[C@H]4O)cc3O2)cc1O` [Hesperiden]: the “Metabolic rate (Mean ± SD, % of control)” value is 104.17 ± 3.09 % of control.
For the molecule `COc1cc(-c2oc3cc(O)cc(O)c3c(=O)c2O)ccc1O` [Isorhamnetin], the “Metabolic rate (Mean ± SD, % of control)” value is listed as 65.68 ± 3.49 % of control.
On to `O=c1c(O)c(-c2ccc(O)cc2)oc2cc(O)cc(O)c12` [Kaempferol], for which the “Metabolic rate (Mean ± SD, % of control)” value is reported as 66.02 ± 4.43 % of control.
As to `COC(=O)C1=C(C)NC(C)=C(C(=O)OC(C)(C)CN(C)CCC(c2ccccc2)c2ccccc2)C1c1cccc([N+](=O)[O-])c1` (stereo not drawn) [Lercanidipine], the “Metabolic rate (Mean ± SD, % of control)” value was 26.70 ± 7.18 % of control.
On to `CC1(C)O[C@H]2CC(=O)OC[C@]23[C@H]2CC[C@@]4(C)[C@H](c5ccoc5)OC(=O)[C@H]5O[C@]54[C@]2(C)C(=O)C[C@@H]13` [Limonin], for which the “Metabolic rate (Mean ± SD, % of control)” value is 19.90 ± 0.36 % of control.
In the case of `CN1C(C(=O)Nc2ccccn2)=C(O)c2sc(Cl)cc2S1(=O)=O` [Lornoxicam], the “Metabolic rate (Mean ± SD, % of control)” value is given as 79.39 ± 3.06 % of control.
Regarding `CCCCc1nc(Cl)c(CO)n1Cc1ccc(-c2ccccc2-c2nn[nH]n2)cc1` [Losartan], the “Metabolic rate (Mean ± SD, % of control)” value is listed as 35.88 ± 1.19 % of control.
`CC[C@H](C)C(=O)O[C@H]1C[C@@H](C)C=C2C=C[C@H](C)[C@H](CC[C@@H]3C[C@@H](O)CC(=O)O3)[C@H]21` [Lovastatin]: the “Metabolic rate (Mean ± SD, % of control)” value is on record as 17.75 ± 0.36 % of control.
As to `O=c1cc(-c2ccc(O)c(O)c2)oc2cc(O)cc(O)c12` [Luteolin], the “Metabolic rate (Mean ± SD, % of control)” value is 95.78 ± 7.92 % of control.
For `CC(C)=CCC/C(C)=C/C=C/C(C)=C/C=C/C(C)=C/C=C/C=C(C)/C=C/C=C(C)/C=C/C=C(\C)CCC=C(C)C` [Lycopene] the value was 7.16 ± 0.77 % of control.
For `O=C1CCC[C@@H]2[C@H]3CCCN4CCC[C@@H](CN12)[C@@H]34` [Matrine] the value was 80.23 ± 12.45 % of control.
For the molecule `Cc1cccc(C)c1OCC(C)N` (stereo not drawn) [Mexiletine], the “Metabolic rate (Mean ± SD, % of control)” value is given as 95.32 ± 2.42 % of control.
Turning to `O=c1c(O)c(-c2cc(O)c(O)c(O)c2)oc2cc(O)cc(O)c12` [Myricetin], the “Metabolic rate (Mean ± SD, % of control)” value is reported as 2.38 ± 0.15 % of control.
As for `O=C1C[C@@H](c2ccc(O)cc2)Oc2cc(O)cc(O)c21` [Naringenin], the “Metabolic rate (Mean ± SD, % of control)” value is 42.57 ± 2.14 % of control.
Consider `C[C@@H]1O[C@@H](O[C@H]2[C@H](Oc3cc(O)c4c(c3)O[C@H](c3ccc(O)cc3)CC4=O)O[C@H](CO)[C@@H](O)[C@@H]2O)[C@H](O)[C@H](O)[C@H]1O` [Naringin], for which the “Metabolic rate (Mean ± SD, % of control)” value is 100.87 ± 17.42 % of control.
With `CCOC(=O)C1=C(C)NC(C)=C(C(=O)OC)C1c1cccc([N+](=O)[O-])c1` (stereo not drawn) [Nitrendipine], the “Metabolic rate (Mean ± SD, % of control)” value is 27.00 ± 0.21 % of control.
For the molecule `CCOc1ccc(Cc2cc([C@]34OC[C@](CO)(O3)[C@@H](O)[C@H](O)[C@H]4O)ccc2Cl)cc1` [PF-04971729], the “Metabolic rate (Mean ± SD, % of control)” value is listed as 92.72 ± 3.41 % of control.
For `O=C(/C=C/C=C/c1ccc2c(c1)OCO2)N1CCCCC1` [Piperine] the value was 203.66 ± 9.93 % of control.
Take `CC(=O)Oc1cc2c(s1)CCN(C(C(=O)C1CC1)c1ccccc1F)C2` (stereo not drawn) [Prasugrel]: the “Metabolic rate (Mean ± SD, % of control)” value is on record as 31.93 ± 1.49 % of control.
`CCCNCC(O)COc1ccccc1C(=O)CCc1ccccc1` (stereo not drawn) [Propafenone]: the “Metabolic rate (Mean ± SD, % of control)” value is 54.95 ± 0.92 % of control.
With `O=c1c(O)c(-c2ccc(O)c(O)c2)oc2cc(O)cc(O)c12` [Quercetin], the “Metabolic rate (Mean ± SD, % of control)” value is recorded as 57.86 ± 5.58 % of control.
